Experimental findings from article PMC9020739, “Identification of a two-component regulatory system involved in antimicrobial peptide resistance in Streptococcus pneumoniae” (PLoS Pathogens, 2022) are described below.

Holding throughout (assay type): cell-based, Streptococcus pneumoniae
For test [1], the system named is BceA-GFP in S. pneumoniae R800. Kind of test: BceA-GFP expression by fluorescence microscopy and Western blot. The following applies: bacitracin 0.5 μg/mL, 30 min, 37°C, fluorescence microscopy of individual cells. As for the experimental part:
Cells were inoculated in C+Y medium and grown at 37°C, without agitation and in anaerobic conditions, until at OD550nm = 0.3. After centrifugation 5 min at 5,000 g, pellets were resuspended in 1/50th of initial volume in TE buffer (25 mM Tris-HCl pH = 7.5, EDTA 1 mM) with DNase/RNase 6 μg/mL and protease inhibitor CLAPA 1X (Chymostatin 1 μg/mL, Pepstatin 1 μg/mL, Leupeptin 1 μg/mL, Antipaïn 1 μg/mL, Aprotinin 4 μg/mL). Cells were lysed by sonication by using Sonifier 450 Branson device. 25 μg of crude extracts were mixed with Laemmli loading buffer and heated 10 min at 95°C. Samples were loaded onto an 12.5% SDS-PAGE and migration was performed in TG-SDS buffer (Tris-HCl 25 mM, Glycine 0.192 M, SDS 0.1% (v/v)). Proteins were transferred onto a PVDF membrane, previously activated by methanol 100%, in a transfer buffer (Tris-HCl 25 mM pH = 8, Glycine 0.192 M, methanol 20% (v/v), SDS 0.04% (v/v)). The membrane was washed with TBST (Tris-HCl 100 mM pH = 8, NaCl 150 mM, Tween 0.05%) and incubated 1 h with blocking buffer (BSA 5%, TBST). […]
Pneumococcal cells were grown at 37°C until OD550nm = 0.2 in C+Y medium. […] Images were analyzed using ImageJ (http://rsb.info.nih.gov/ij/) and the plugin MicrobeJ to generate violin plots.

Test [2] concerns protein levels in R6 Δtcs01 strain. As to the kind of experiment: Quantitative proteomics (TMT labeling, LC-MS/MS). As for the experimental part:
(§1) In experiments 1 and 2, we analyzed the R6 WT and R6 Δtcs01 strains treated or not with 1 μg/mL of bacitracin. In experiment 3, we analyzed the R800-Δhk01-PcomX-rr01-hk01 strain treated with either 1 μg/mL or 32 μg/mL of bacitracin.
(§2) Strains were grown in 50 mL of THY medium at 37°C without agitation and in anaerobic conditions until the absorbance reaches approximatively 0.3. After the addition of bacitracin (final concentrations of 1 or 32 μg/mL), the bacterial cultures were incubated for 45 min at 37°C with a slight mechanical agitation (60 rpm). Then, the cell density was adjusted to an OD600nm = 0.8 in 10 mL. After centrifugation at 4,000 x g for 10 min at 4°C, the pellets were resuspended with 1 mL of cold Tris-HCl 50 mM pH 7.5 and centrifuged at 10,000 x g, for 5 min at 4°C. The pellets were harvested and treated in the same conditions than previously. The contents were transferred into Eppendorf low-binding tubes. After a last centrifugation at 10,000 x g for 5 min at 4°C, the bacterial pellets were stored at -80°C. […] The proteins were quantified by using BCA assay kit (Thermo Scientific) before sending the samples to mass spectrometry analysis.
(§3) To compare the proteins abundance between the different conditions/samples, we used a multiplexed quantitation method after labeling by isobaric Tandem Mass Tags (TMT). […]
(§4) We simultaneously compared 6 TMT samples within the same experiment. In the experiment 1 we analyzed one sixplex containing R6 WT, R6 WT+ Bacitracin 1, R6 WT+ Bacitracin 2, R6 ΔTCS, R6 ΔTCS+ Bacitracin 1, R6 ΔTCS+ Bacitracin 2 labeled with reporter ions 126, 127, 128, 129, 130 and 131, respectively; and experiment 2 is a second sixplex containing R6 WT1, R6 WT2, R6 WT+ Bacitracin, R6 ΔTCS1, R6 ΔTCS2, R6 ΔTCS+ Bacitracin labeled with reporter ions 126, 127, 128, 129, 130 and 131, respectively. The calculated ratios shown in Figs 5 and S5 are: experiment 1: R6 WT+ Bacitracin (1/2)/R6WT and R6 WT+ Bacitracin (1/2)/ R6 ΔTCS+ Bacitracin (1/2); experiment 2: R6 WT+ Bacitracin /R6WT (1/2) and R6 WT+ Bacitracin/ R6 ΔTCS+ Bacitracin. […]

Test [3] concerns BceAB protein levels in R6 WT strain. As to the kind of experiment: Quantitative proteomics (TMT labeling, LC-MS/MS). Conditions: R6 wild-type, bacitracin 1 μg/ml for 45 min versus untreated. As for the experimental part:
as §1, §2, §3, §4

Where a SMILES comes first, the peptide text is derived from it. Bridges are numbered along the chain shown (N, C = ends). [ ]: non-standard residue; d: D form. The star is where a group is joined. Ileψ(thiazoline)Cys = CC[C@H](C)[C@H](N)C1=N[C@H](C(=O)*)CS1; dOrn = NCCC[C@@H](N)C(=O)O

Consider `CC[C@H](C)[C@H](N)C1=N[C@H](C(=O)N[C@@H](CC(C)C)C(=O)N[C@H](CCC(=O)O)C(=O)N[C@H](C(=O)N[C@H]2CCCCNC(=O)[C@H](CC(N)=O)NC(=O)[C@@H](CC(=O)O)NC(=O)[C@H](Cc3cnc[nH]3)NC(=O)[C@@H](Cc3ccccc3)NC(=O)[C@H]([C@@H](C)CC)NC(=O)[C@@H](CCCN)NC2=O)[C@@H](C)CC)CS1` [bacitracin] ({Ileψ(thiazoline)Cys}-L[dE]IK[dOrn]I[dF]H[dD]N; lactam 4-C (inferred); N-terminus assumed), for which the “Expression of BceA-GFP” value in test [1] is “strongly activated”. The “BceAB protein levels upon treatment” value in test [2] (R6 Δtcs01, bacitracin 1 μg/ml for 45 min versus untreated, average) stood at 0.99 ± 0.09 fold. In addition, in test [2] (R6 Δtcs01 treated with bacitracin, TMT proteomics), the “Abundance of LiaS upon treatment” value is “increased by two-fold”. Besides, in test [3], the “Accumulation of BceAB upon treatment” value came to 7 ± 3 fold.
